Reference: patent US20210382058A1, “PATIENT SELECTION FOR TREATMENT OF MYC POSITIVE CANCERS WITH INDENOISOQUINOLINES” (Purdue Research Foundation, priority 2020, published 2021)
Where two headings read alike, the source gives them in different places.

How the values were obtained:
human topoisomerase I = biological target: T1, human topoisomerase I (Homo sapiens, UniProt P11387); details: relative topoisomerase I inhibition levels, previously determined, six levels (0 - 5, +++++ = 5); cited from earlier work
T1 sequence (P11387 1-765): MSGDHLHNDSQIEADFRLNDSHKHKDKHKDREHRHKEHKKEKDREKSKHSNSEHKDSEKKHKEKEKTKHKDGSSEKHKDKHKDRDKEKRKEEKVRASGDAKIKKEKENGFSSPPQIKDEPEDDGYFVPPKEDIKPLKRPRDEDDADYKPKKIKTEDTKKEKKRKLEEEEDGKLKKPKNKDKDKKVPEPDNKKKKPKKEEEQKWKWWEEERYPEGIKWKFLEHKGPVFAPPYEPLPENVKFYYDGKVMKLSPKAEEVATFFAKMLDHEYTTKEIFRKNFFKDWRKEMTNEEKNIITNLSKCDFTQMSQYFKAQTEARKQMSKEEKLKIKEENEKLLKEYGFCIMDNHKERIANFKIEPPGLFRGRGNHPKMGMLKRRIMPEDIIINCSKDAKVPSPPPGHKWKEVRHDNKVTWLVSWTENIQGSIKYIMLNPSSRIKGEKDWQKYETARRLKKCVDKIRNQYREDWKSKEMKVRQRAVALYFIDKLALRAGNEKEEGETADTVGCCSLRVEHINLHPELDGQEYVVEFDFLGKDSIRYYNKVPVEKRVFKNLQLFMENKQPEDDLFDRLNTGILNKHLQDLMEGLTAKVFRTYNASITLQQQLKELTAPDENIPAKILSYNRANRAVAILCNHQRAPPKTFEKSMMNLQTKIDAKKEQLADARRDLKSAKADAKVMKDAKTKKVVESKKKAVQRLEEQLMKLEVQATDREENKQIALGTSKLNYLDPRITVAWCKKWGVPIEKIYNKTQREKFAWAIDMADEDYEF

[1] = test system: MYC protein expression in MCF-7 breast cancer cells; assay: Western blotting of MYC protein level in MCF-7 cells; type: cell-based, human; details: Homo sapiens, MCF7; western blotting, MCF-7 cells, 0.5, 1, 2, and 4 μM, 24 hours; read-out: MYC Inhibition
Experimental: MCF-7 cells were incubated with each compound at four concentrations (0.5, 1, 2, and 4 μM) for 24 hours, and the MYC protein levels were measured (FIG. 3A and FIGS. 12 A to 12 F).
Cells were incubated at 37° C. with 5% CO2.
The gels were cut into strips that contained the proteins of interest and transferred to nitrocellulose membrane (I323002, Invitrogen) using an iBlot 2 Dry Transfer Device (Invitrogen). Immunoblotting was carried out according to standard procedures using the ECL detection method. The membrane was hybridized with the following antibodies: monoclonal anti-MYC (1:1000 dilution; rabbit, Cell Signaling Technology), monoclonal anti-GAPDH (1:2000 dilution; rabbit, Cell Signaling Technology).

NCI-60 cancer cell lines = assay: NCI-60 cancer cell line drug screen (GI50, MGM); type: cell-based, human; details: Homo sapiens; for GI50: read-out: Antiproliferative Activities [GI50 (μM)]; for mean GI50 across NCI-60 panel (MGM): average of GI50 values across the entire panel of NCI-60 cancer cell lines
Experimental: Cancer cells were incubated with the test compounds at five concentrations ranging from 100 μM to 10 nM for 48 h. […] The approximate average of GI50 values across the entire panel of NCI-60 cancer cell lines for each compound was recorded as the MGM value.

[2] = A549, Non-Small Cell Lung Cancer, A549/ATCC
[3] = COLO 205, Colon Cancer, COLO 205
[4] = HCC 2998, Colon Cancer, HCC-2998
[5] = HOP-62, Non-Small Cell Lung Cancer, HOP-62
[6] = HOP-92, Non-Small Cell Lung Cancer, HOP-92
[7] = NCI-H23, Non-Small Cell Lung Cancer, NCI-H23
[8] = NCI-H226, Non-Small Cell Lung Cancer, NCI-H226
[9] = NCI-H322M, Non-Small Cell Lung Cancer, NCI-H322M
[10] = NCI-H460, Non-Small Cell Lung Cancer, NCI-H460
[11] = NCI-H522, Non-Small Cell Lung Cancer, NCI-H522
[12] = EKVX, Non-Small Cell Lung Cancer, EKVX

| Compound | Top1 Inhibiton (human topoisomerase I) | minimal effective concentration [1] [µM] | GI50 (NCI-60 cancer cell lines; [2]) [µM] | GI50 (NCI-60 cancer cell lines; CCRF-CEM, Leukemia, CCRF-CEM) [µM] | GI50 (NCI-60 cancer cell lines; [3]) [µM] | GI50 (NCI-60 cancer cell lines; [4]) [µM] | GI50 (NCI-60 cancer cell lines; HCT-116, Colon Cancer, HCT-116) [µM] | GI50 (NCI-60 cancer cell lines; HL-60, Leukemia, HL-60(TB)) [µM] | GI50 (NCI-60 cancer cell lines; [5]) [µM] | GI50 (NCI-60 cancer cell lines; [6]) [µM] | GI50 (NCI-60 cancer cell lines; K562, Leukemia, K-562) [µM] | GI50 (NCI-60 cancer cell lines; MOLT-4, Leukemia, MOLT-4) [µM] | GI50 (NCI-60 cancer cell lines; [7]) [µM] | GI50 (NCI-60 cancer cell lines; [8]) [µM] | GI50 (NCI-60 cancer cell lines; [9]) [µM] | GI50 (NCI-60 cancer cell lines; [10]) [µM] | GI50 (NCI-60 cancer cell lines; [11]) [µM] | GI50 (NCI-60 cancer cell lines; RPMI-8226, Leukemia, RPMI-8226) [µM] | mean GI50 across NCI-60 panel (MGM) (NCI-60 cancer cell lines) [nM] | GI50 (NCI-60 cancer cell lines; [12]) [µM] | also measured |
| --- | --- | --- | --- | --- | --- | --- | --- | --- | --- | --- | --- | --- | --- | --- | --- | --- | --- | --- | --- | --- | --- |
| CCNCCCn1c2c(c3ccc(F)cc3c1=O)C(=O)c1cc(OC)cnc1-2 [Compound 7] | ++ (medium inhibition, ++, MYC expression inhibited at 2.0 μM, or no clear dose-dependent MYC inhibition) |  |  |  |  |  |  |  |  |  |  |  |  |  |  |  |  |  |  |  |  |
| COc1cnc2c(c1)C(=O)c1c-2n(CCCN2CCNCC2)c(=O)c2cc(F)ccc12 [Compound 8] | + (weak inhibition, +, MYC expression inhibited at 4.0 μM) |  |  |  |  |  |  |  |  |  |  |  |  |  |  |  |  |  |  |  |  |
| COc1cc2c(=O)n(CCCN3CCOCC3)c3c(c2cc1OCCCN1CCCC1)C(=O)c1cc2c(cc1-3)OCO2 [Compound 55] | ++ (medium inhibition, ++, MYC expression inhibited at 2.0 μM, or no clear dose-dependent MYC inhibition) | 4 | 0.11 | < 0.01 | 0.31 | 3.32 | 0.16 | 0.3 | 0.19 | 1.66 | 0.19 | < 0.01 | 0.71 | 2.12 | 1 | 0.03 | 0.04 | 0.25 | 340 |  | GI50 (NCI-60 cancer cell lines; Leukemia, SR): < 0.01 µM |
| COc1cc2c3c(n(CCCN4CCC(N)CC4)c(=O)c2cc1OC)-c1cc2c(cc1C3=O)OCO2 [Compound 48] | + (weak inhibition, +, MYC expression inhibited at 4.0 μM) | 4 | 0.65 | 0.3 | 1.14 | 0.14 | 0.12 | > 50 | 0.42 |  | 1.59 | 0.42 | 0.71 | 0.66 | 1.05 | 0.24 | 13.1 | 0.2 | 1020 | 1.31 |  |
| COc1cc2c3c(n(CCCNCCN)c(=O)c2cc1OC)-c1cc2c(cc1C3=O)OCO2 [Compound 46] | +++ (strong inhibition, +++, MYC expression inhibited at 0.5 to 1.0 μM) | 4 | 0.74 | < 0.01 | 0.08 |  | 0.13 | 0.25 | 0.05 | 3.27 | 0.28 | < 0.01 | 0.05 | 0.65 | 0.53 | 0.43 | 0.4 | 0.48 |  | 2.06 |  |
| COc1cc2c3c(n(CCCN4CCN(C)CC4)c(=O)c2cc1OC)-c1cc2c(cc1C3=O)OCO2 [Compound 49] | + (weak inhibition, +, MYC expression inhibited at 4.0 μM) | 4 | 18.7 | 2.44 | 10.3 | < 0.01 | 1.49 | 19.5 | 18 | 19.8 | 6.49 | < 0.01 | 11.9 | 13.9 | 15.6 | 5.81 | 15.4 | 2.39 | 12000 | 17.7 |  |
